Experimental data published in patent publication US20220194938A1, “NOVEL COMPOUNDS AND PHARMACEUTICAL COMPOSITIONS THEREOF FOR THE TREATMENT OF INFLAMMATORY DISORDERS” (GALAPAGOS NV, priority 2019, published 2022).
Where two headings read alike, the source gives them in different places.

Experiments:
THP-1-Lucia NFκB cells = test: NFκB-reporter assay in THP1-Lucia NFκB cells (LPS, IL-1β, TNFα trigger); type: cell-based; details: 24 h
Description: This assay was used to evaluate the IRAK4 selectivity and potency of the compounds of the invention upon IRAK4 dependent (LPS and IL-1β) and independent triggering (TNFα), in a THP1-Lucia NFκB reporter assay.
THP-1-Lucia NFκB cells (Invivogen—5, rue Jean Rodier 31400 Toulouse France—cat #thp1-nfkb) were cultivated as recommended by the supplier using split cycles each cycle comprising a succession of thawing/expansion/seeding. The data reported were generated using cells having between 3 to 9 cycles. On the day of the experiment THP-1-Lucia NFκB cells were counted and seeded at a density of 1,000,000 cells/mL in culture medium (RPMI 1640 (Gibco, Cat #52400-025)+10% FBS (Sigma, Cat #F7524-500ML)+1% P/S (Gibco, Cat #15140-122)) by pipetting 54 μL/well in a 384 well plate. Thereafter, 6 μL of a 10× trigger solution was added to all wells, at final concentrations of 2.5, 10 and 3 ng/mL for respectively LPS, TNFα and IL-1β, except for ‘no trigger wells’ where 6 μL culture medium only was added.
After trigger addition, compounds were added with a digital compound dispenser, in an 8-points concentration range, using 3-fold dilution steps and normalizing the final DMSO concentration to 0.2% DMSO in all wells.
After 24 h incubation at 37° C., 5% CO2, 40 μL of supernatant was collected per well and transferred to a new 384 well plate that was then stored at −20° C. until further use.
For the readout, supernatant samples were thawed on ice and 5 μL sample was transferred from each well to a new 384-well plate. 20 μL of Quanti-Luc solution (Quanti-Luc powder (Invivogen, Cat #rep-glc1) dissolved in 25 mL sterile water as indicated by the manufacturer) was added to each well after which luminescence was immediately measured on an Envision instrument.
To measure the inhibition of LPS/TNFα/IL-1β-induced NFκB-reporter activity, percentage inhibition (PIN) values were calculated for all concentrations tested, compared to controls. […]

[1] = system: Collagen Induced Arthritis (CIA); test: Mouse collagen induced arthritis (CIA) model; type: in vivo; details: mouse CIA, 3, 10 and 30 mg/kg b.i.d., versus disease vehicle group
Method: 5.1. CIA Model 5.1.1. Materials Completed Freund's adjuvant (CFA) and incomplete Freund's adjuvant (IFA) were purchased from Difco. Bovine collagen type II (CII), lipopolysaccharide (LPS), and Enbrel was obtained from Chondrex (Isle d'Abeau, France); Sigma (P4252, L'Isle d'Abeau, France), […] (25 mg injectable syringe, France) Acros Organics (Palo Alto, Calif.), respectively. All other reagents used were of reagent grade and all solvents were of analytical grade. 5.1.2. Animals DBA1/J mice (male, 7-8 weeks old) were obtained from Charles River Laboratories (France). Mice were kept on a 12 h light/dark cycle (07 h00-19 h00). Temperature was maintained at 22° C., and food and water were provided ad libitum. 5.1.3. Collagen Induced Arthritis (CIA) One day before the experiment, CII solution (2 mg/mL) was prepared with 0.05 M acetic acid and stored at 4° C. Just before the immunization, equal volumes of adjuvant (IFA) and CII were mixed by a homogenizer in a pre-cooled glass bottle in an ice water bath. Extra adjuvant and prolonged homogenization may be required if an emulsion was not formed. […] Body weight and clinical score, were recorded twice a week. […] Clinical Assessment of Arthritis Arthritis is scored according to the method of (Khachigian 2006; Lin et al. 2007; Nishida et al. 2004). […] Results For each readout, mean and sem were calculated. […]

EC50 (THP-1-Lucia NFκB cells; IL-1β 3 ng/mL, read-out: IL-1β driven NFκB-reporter activity, average pEC50 (converted)) [nM] | EC50 (THP-1-Lucia NFκB cells; LPS 2.5 ng/mL, read-out: LPS driven NFκB-reporter activity, average pEC50 (converted)) [nM] | Structure (SMILES) | TNFα mediated NFκB-reporter activity (THP-1-Lucia NFκB cells; TNFα 10 ng/mL) | effect on bone erosion Larsen Score [1]
63.1 | 316 | CCOc1c(NC(=O)c2cccn(C3CC3)c2=O)cn2cc(CCS(C)(=O)=O)nc2c1F [Compound 39, 1-cyclopropyl-N-[7-ethoxy-8-fluoro-2-(2-methylsulfonylethyl)imidazo[1,2-a]pyridin-6-yl]-2-oxo-pyridine-3-carboxamide] | no activity was observed | 
 |  | CNC(=O)c1cc2nc(CCC(C)(C)O)cn2cc1NC(=O)c1cccc(C(F)(F)F)n1 [Compound 2, 2-(3-hydroxy-3-methyl-butyl)-N-methyl-6-[[6-(trifluoromethyl)pyridine-2-carbonyl]amino]imidazo[1,2-a]pyridine-7-carboxamide] |  | statistically significant effect
